Experimental data: US4977181A, “Tromethamine salt of 1-methyl-beta-oxo-alpha-(phenylcarbamoyl)-2-pyrrolepropionitrile” (priority 1989, dated 1990)
Where a name gives a salt, the structure may show the parent alone.

Columns and labels:
Sprague-Dawley rats = assay: Acute Toxicity Study (single oral dose, mortality); type: in vivo, rat (Sprague-Dawley); settings: for Mortality, Female / Mortality, Male: single oral gavage, observed for 15 days; for Mortality, Female: female rats; for Mortality, Male: male rats
Procedure: (§1) A single equimolar dose of each compound is administered orally by gavage as a 3% corn starch suspension to 5 female and 5 male Sprague-Dawley rats. The animals are there observed for 15 days.
(§2) The comparative incidence of mortality for the free acid of formula I, the triethanolamine salt thereof and the tromethamine salt of formula II are as follows: […]

[1] = Acute Toxicity Study (single oral dose, mortality); type: in vivo, rat (Sprague-Dawley); settings: rat, in vivo, po, 2400 umol/kg, 2.4 millimoles/Kg p.o., rat, both sexes; read-out: mortality rate
Procedure: as §1, §2

[2] = tolerability at therapeutically effective doses; type: in vivo
cartilage matrix = assay: inhibition of cartilage matrix degradation; type: cell-based, bovine; settings: in words
Procedure: The effect on cartilage matrix degradation can be determined in the cartilage-synovium co-culture model of matrix degradation which is carried out as follows:
The proteoglycan matrix of bovine nasal septum cartilage is labeled in vitro by incorporation of ^35 S into glycosaminoglycan. Cartilage slices are incubated overnight in a sulfate-free medium containing ^35 S-sodium sulfate. ^35 S-Labeled cartilage slices are co-cultured with normal synovium explants in multiwell tissue culture plates. After 4 days incubation a 100 μl aliquot of medium is counted. Cartilage slices are hydrolyzed and a 100 μl aliquot of cartilage hydrolysate is counted. The percent ^35 S released into the medium is determined and the percent of inhibition of matrix degradation is calculated.

[3] = antiinflammatory activity; type: in vivo; settings: in words
Procedure: The compound can be administered to the animals either enterally, preferably orally, parenterally, e.g. subcutaneously or intravenously, or topically, for example, in the form of aqueous solutions or suspensions. The applied dosage may range between about 0.1 and 100 mg/kg/day, preferably between about 1 and 50 mg/kg/day. The tests include the classical in vivo assay methods for said activities, such as the carrageenin paw-edema, adjuvant arthritis tests in rats, and the canine synovitis test.

cell-mediated immunity = assay: enhancement of depressed cell-mediated immunity; type: in vivo, rat; settings: in words
Procedure: Immunopotentiating effects can be determined in BCG-immunized animals. In vitro, the enhancement of cell-mediated immunity is determined by measuring the increase in chemotaxis of macrophages isolated from BCG-immunized rats. In vivo, such is determined in the BCG-immunized adjuvant arthritic rat by measuring the effect on delayed hypersensitivity reaction essentially as described in Current Therapeutic Research 30, S34 (1981).

[4] = 2.4 Millimoles/Kg, listed as II
[5] = 3.6 Millimoles/Kg, listed as II

Cn1cccc1C(=O)C(C#N)C(=O)Nc1ccccc1 (stereo not drawn) [formula I, 1-methyl-beta-oxo-alpha-phenylcarbamoyl-2-pyrrolepropionitrile]
Mortality, Female (Sprague-Dawley rats; 1.2 Millimoles/Kg): 0/5
Mortality, Male (Sprague-Dawley rats; 1.2 Millimoles/Kg): 0/5
Mortality, Female (Sprague-Dawley rats; 2.4 Millimoles/Kg, listed as I): 2/5
Mortality, Male (Sprague-Dawley rats; 2.4 Millimoles/Kg, listed as I): 2/5
mortality rate (Sprague-Dawley rats; 2.4 millimoles/Kg p.o., rat, both sexes, 21600 min): 40%
Mortality, Female (Sprague-Dawley rats; 3.6 Millimoles/Kg, listed as I): 4/5
Mortality, Male (Sprague-Dawley rats; 3.6 Millimoles/Kg, listed as I): 4/5

Cn1cccc1C(=O)C(C#N)C(=O)Nc1ccccc1 (stereo not drawn) [triethanolamine salt, triethanolamine salt of 1-methyl-beta-oxo-alpha-(phenylcarbamoyl)-2-propionitrile]
mortality at 360 h [1]: 50%
Mortality, Female (Sprague-Dawley rats; 2.4 Millimoles/Kg): 3/5
Mortality, Male (Sprague-Dawley rats; 2.4 Millimoles/Kg): 2/5
Mortality, Female (Sprague-Dawley rats; 3.6 Millimoles/Kg): 5/5
Mortality, Male (Sprague-Dawley rats; 3.6 Millimoles/Kg): 5/5

Cn1cccc1C(=O)C(C#N)C(=O)Nc1ccccc1 (stereo not drawn) [formula II, 1-methyl-beta-oxo-alpha-(phenylcarbamoyl)-2-pyrrolepropionitrile (1:1) tromethamine salt]
tolerability [2]: well tolerated
undesirable side effects [2]: essentially free of undesirable side effects
inhibition of cartilage matrix degradation (cartilage matrix): inhibition of cartilage matrix degradation
antiinflammatory activity [3]: displays antiinflammatory
enhancement of depressed cell-mediated immunity (cell-mediated immunity): enhancement of depressed cell-mediated immunity
Mortality, Female (Sprague-Dawley rats; [4]): 0/5
Mortality, Male (Sprague-Dawley rats; [4]): 0/5
deaths (animals) (Sprague-Dawley rats; 2.4 millimoles/Kg p.o., rat, both sexes): 0/10
Mortality, Female (Sprague-Dawley rats; [5]): 5/5
Mortality, Male (Sprague-Dawley rats; [5]): 5/5
acute toxicity compared with free acid of formula I or the triethanolamine salt (Sprague-Dawley rats; rat, in words): less toxic than the free acid of formula I or the triethanolamine salt thereof
